In this experiment the target is T1, GPR6 receptor expressed in CHO-K1 cells (Homo sapiens, UniProt P46095).
T1 construct: expressed in transfected cells
T1 sequence (P46095 whole entry): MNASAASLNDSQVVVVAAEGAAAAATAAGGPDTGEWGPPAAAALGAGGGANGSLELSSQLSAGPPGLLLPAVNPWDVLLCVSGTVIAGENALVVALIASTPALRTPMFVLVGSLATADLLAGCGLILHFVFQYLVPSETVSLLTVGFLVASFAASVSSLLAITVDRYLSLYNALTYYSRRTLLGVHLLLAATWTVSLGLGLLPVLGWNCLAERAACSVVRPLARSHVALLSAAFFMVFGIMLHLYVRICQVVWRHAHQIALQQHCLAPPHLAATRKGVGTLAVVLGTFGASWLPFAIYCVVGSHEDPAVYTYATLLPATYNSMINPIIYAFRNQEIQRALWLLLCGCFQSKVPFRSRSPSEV
In words: In vitro inhibition of cAMP (EC50), cell-based HTRF cAMP assay. The conditions noted are these: inhibition of constitutive cAMP activity of GPR6 in CHO-K1 cells. The method, boiled down: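 Tetracycline-inducible CHO-K1 line, GPR6 expression induced 20 h with 2 μg/mL doxycycline. Compounds incubated 45 min at 37 °C in Ringer's buffer (pH 7.4) with 0.5% fatty acid free BSA and 300 μM IBMX. Constitutive cAMP read by Lance HTRF; EC50 from four-parameter logistic fit.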
A general note: TR-FRET usually uses a lanthanide donor and a delayed reading to cut background.
Turning to `COc1cc(C)ccc1C(=O)Nc1cc(C#N)ccc1N1CCC(Oc2ccc(F)cc2F)CC1` [Example 236, N-(5-cyano-2-(4-(2,4-difluorophenoxy)piperidin-1-yl)phenyl)-2-methoxy-4-methylbenzamide], the “pEC50, in vitro inhibition of cAMP” value is reported as 7.1.
Turning to `Cc1cnc(C(=O)Nc2cc(C#N)ccc2N2CCC(Oc3ccc(F)cc3F)CC2)c(C)n1` [Example 114, N-(5-cyano-2-(4-(2,4-difluorophenoxy)piperidin-1-yl)phenyl)-3,5-dimethylpyrazine-2-carboxamide], the “pEC50, in vitro inhibition of cAMP” value is recorded as 6.1.
`COc1c(Cl)cc(Cl)cc1C(=O)Nc1cc(C#N)ccc1N1CCC(Oc2ccc(F)cc2F)CC1` [Example 234, 3,5-dichloro-N-(5-cyano-2-(4-(2,4-difluorophenoxy)piperidin-1-yl)phenyl)-2-methoxybenzamide]: the “pEC50, in vitro inhibition of cAMP” value is listed as less than 4.5.
Take `COc1nn(C)cc1C(=O)Nc1cnc(C)cc1N1CCC(S(=O)(=O)c2ccc(F)cc2F)CC1` [Example 99, N-(4-(4-((2,4-difluorophenyl)sulfonyl)piperidin-1-yl)-6-methylpyridin-3-yl)-3-methoxy-1-methyl-1H-pyrazole-4-carboxamide]: the “pEC50, in vitro inhibition of cAMP” value turned out to be 6.1.
`COc1cc(CN2CCN(c3ncc(C#N)cc3NC(=O)c3cn(C)nc3OC)CC2)ccc1F` [Example 158, N-(5-cyano-2-(4-(4-fluoro-3-methoxybenzyl)piperazin-1-yl)pyridin-3-yl)-3-methoxy-1-methyl-1H-pyrazole-4-carboxamide]: the “pEC50, in vitro inhibition of cAMP” value amounted to 6.3.
For the molecule `COc1c(C(=O)Nc2cc(C#N)ccc2N2CCC(Oc3ccc(F)cc3F)CC2)ccc(F)c1F` [Example 233, N-(5-cyano-2-(4-(2,4-difluorophenoxy)piperidin-1-yl)phenyl)-3,4-difluoro-2-methoxybenzamide], the “pEC50, in vitro inhibition of cAMP” value worked out at 6.4.

For the origin of these results see patent publication US11426397B2, “Piperidinyl- and piperazinyl-substituted heteroaromatic carboxamides as modulators of GPR6” (TAKEDA PHARMACEUTICAL COMPANY LIMITED, priority 2017, dated 2022).
